Values of other authors as cited in patent publication US8450380B2, “Method for implementing active ingredients in order to protect them and optimize their delivery method” (Coatex S.A.S., priority 2007, dated 2013).

Settings: general statement

Solubility: non-hydrosoluble
Compound: O=c1c2cc(Cl)ccc2[nH]c2cc3c(=O)c4cc(Cl)ccc4[nH]c3cc12 [Magenta Cinquasia RT-235-D, 2,9 dichloro-5,12 dihydroquino [2,3-b] acridine-7,14 dione]
